From patent publication US20070037785A1, “Novel dipeptidyl peptidase IV inhibitors used for functionally influencing different cells and treating immunological, infammatory, neuronal, and other diseases” (priority 2003, published 2007)

These compounds were tested against dipeptidyl peptidase IV (Homo sapiens, UniProt P27487) (assay: biochemical). Conditions: values marked with "*" are ID50 values; read-out: IC50DPIV, values marked with "*" = ID50.
Chain of dipeptidyl peptidase IV (P27487 whole entry, species assumed): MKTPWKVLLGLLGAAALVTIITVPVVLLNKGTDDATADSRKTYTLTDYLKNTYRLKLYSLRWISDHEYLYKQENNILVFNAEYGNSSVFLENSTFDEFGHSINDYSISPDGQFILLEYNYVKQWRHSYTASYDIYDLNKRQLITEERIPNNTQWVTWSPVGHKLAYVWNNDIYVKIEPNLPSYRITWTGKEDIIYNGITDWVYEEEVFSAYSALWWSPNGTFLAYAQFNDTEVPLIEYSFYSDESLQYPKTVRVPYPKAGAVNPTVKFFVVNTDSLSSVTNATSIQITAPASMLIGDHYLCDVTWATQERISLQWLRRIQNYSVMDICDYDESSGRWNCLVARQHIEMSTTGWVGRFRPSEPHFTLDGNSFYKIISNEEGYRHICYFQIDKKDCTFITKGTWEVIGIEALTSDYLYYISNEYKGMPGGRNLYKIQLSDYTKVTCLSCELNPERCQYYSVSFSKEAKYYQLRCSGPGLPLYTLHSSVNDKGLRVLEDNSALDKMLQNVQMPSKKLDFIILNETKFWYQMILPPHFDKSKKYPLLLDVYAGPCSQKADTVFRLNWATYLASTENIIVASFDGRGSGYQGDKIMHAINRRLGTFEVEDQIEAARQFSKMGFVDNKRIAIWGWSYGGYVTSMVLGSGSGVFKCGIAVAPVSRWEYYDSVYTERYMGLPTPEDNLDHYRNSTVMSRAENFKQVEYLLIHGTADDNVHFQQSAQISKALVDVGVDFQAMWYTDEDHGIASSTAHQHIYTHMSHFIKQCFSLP

| SMILES | IC50 |
| --- | --- |
| CCCc1c(C)nc(N)c(C#N)c1-c1ccccc1 [D4.104] | 255 µM |
| O=C(Nc1cccc(/N=C/c2cc(/N=N\c3ccccc3Cl)ccc2O)c1)c1ccco1 [D14.002] | 2.5 µM |
| CCOC(=O)n1ccc(C(=O)Nc2cc(C)ccn2)n1 [D6.112] | 148 µM |
| O=C(Cn1c2ccccc2c(=O)c2ccccc21)N/N=C/c1ccc(O)c(O)c1 [D10.092] | 63.5 µM |
| CCOc1cc(/C=N/NC(=O)c2nnn(-c3nonc3N)c2-c2ccccc2)ccc1OC [D10.132] | 271 µM |
| COc1ccc(NC(=O)CSc2nnc3n2-c2sc4c(c2C(=O)C3CCc2ccccc2)CC(C)(C)OC4)cc1 (stereo not drawn) [D3.111] | 284 µM |
| O=C(Nc1cccc(/N=C/c2cc(/N=N\c3ccccc3Cl)ccc2O)c1)c1ccco1 [D11.001] | 2.5 µM |
| Cc1cc(Cl)ccc1OC(C)C(=O)N/N=C1/C(=O)Nc2ccc([N+](=O)[O-])cc21 (stereo not drawn) [D10.118] | 166 µM |
| Cc1cc(C(=O)N/N=C\c2c[nH]c3ccccc23)c(C)o1 [D10.136] | 340 µM |
| CC12NCC(c3ccccc3)CC1O2 (stereo not drawn) [D5.047] | 96.6 µM |
| CC(=O)Nc1ccc(Nc2ccc(N3C(=O)CCCC3=O)cc2[N+](=O)[O-])cc1 [D4.079] | 71.3 µM |
| Cc1ccc(C(=O)NC(NC(=S)Nc2sc3c(c2C(N)=O)CCCC3)C(Cl)(Cl)Cl)cc1 (stereo not drawn) [D3.099] | 169 µM |
| O=C(N/N=C/c1ccc(O)c(O)c1)c1cccc([N+](=O)[O-])c1 [D10.111] | 116 µM |
| O=C(COc1ccccc1C(=O)N/N=C\c1ccc(O)c(O)c1)N/N=C/c1ccc(O)c(O)c1 [D10.113] | 127 µM |
| Nc1ccc(C(=O)NNC(=O)c2ccc(N3C(=O)c4ccc(C(=O)NNC(=O)c5ccc([N+](=O)[O-])cc5)cc4C3=O)cc2)cc1 [D3.117] | 402 µM |

Same assay, conditions: values without "*" = IC-50; read-out: IC50DPIV

| SMILES | IC50 |
| --- | --- |
| O=C(N/N=C/c1cc(Br)c(O)c(Br)c1O)/C(=C\c1ccc2c(c1)OCO2)NC(=O)c1ccccc1 [D12.032] | 60 µM |
| CCOc1cc(/C=N/NC(=O)c2cc(C3CC3)[nH]n2)ccc1O [D10.039] | 20.8 µM |
| CNc1nc2c(c(=O)[nH]c(=O)n2C)n1Cc1ccccc1Cl [D6.043] | 27.8 µM |
| O=C1NCCCCC1Nc1ccc(N2C(=O)CCCC2=O)cc1[N+](=O)[O-] (stereo not drawn) [D1.003] | 34.1 µM |
| O=C(/C=C/c1ccco1)c1ccccc1 [D6.029] | 19.7 µM |
| C/C(=N/OC(=O)C(C)(C)C)c1cc2ccccc2oc1=O [D11.004] | 14.1 µM |
| Nc1nonc1-n1nnc(C(=O)NN=C2c3ccccc3-c3ccccc32)c1-c1ccccc1 [D13.001] | 10.1 µM |
| C/C(=C\c1ccc(C(C)C)cc1)C1NCC(c2ccc([N+](=O)[O-])cc2)O1 (stereo not drawn) [D4.072] | 65 µM |
| CC1CCc2c(sc(NC(=O)C(C(F)(F)F)C(F)(F)F)c2C#N)C1 (stereo not drawn) [D6.083] | 59.8 µM |
| CC(C)C1Cc2c(sc3nc(SCC(=O)c4ccccc4)n(Cc4ccccc4)c(=O)c23)CO1 (stereo not drawn) [D3.067] | 52.4 µM |
| COc1ccc(/C=N/N=C2\NC(=O)C(Cc3cccc(C(F)(F)F)c3)S2)cc1 (stereo not drawn) [D10.058] | 34.2 µM |
| CN(/N=C/c1sc(=O)[nH]c1Cl)c1ccccc1 [D10.057] | 32.4 µM |
| CCOC(=O)c1ccc(N2C(=O)CSCC2=O)cc1 [D4.015] | 12.2 µM |
| Cn1c(=O)c2c(nc(NCCO)n2Cc2ccccc2Cl)n(C)c1=O [D6.063] | 44 µM |
| CC(C)C1Cc2c(sc3c2c(=O)n(Cc2ccccc2)c2nnc(SCC(=O)O)n32)CO1 (stereo not drawn) [D3.024] | 18.9 µM |
| CCOC(=O)CC(N)c1ccccc1Cl (stereo not drawn) [D13.005] | 72.2 µM |
| COc1cc(Br)cc(Br)c1OCC(=O)N/N=C/c1cc(O)c(O)c(Br)c1Br [D10.010] | 9.1 µM |
| CCOC(=O)CN(Cc1ccccc1)c1ccc(N2C(=O)CCCC2=O)cc1[N+](=O)[O-] [D4.017] | 13.5 µM |
| O=C1c2ccccc2C(=O)N1c1cccc(-c2csc(N3N=C(c4cccc([N+](=O)[O-])c4)CC3c3ccc(F)cc3)n2)c1 (stereo not drawn) [D3.050] | 39.8 µM |
| O=C(N/N=C/C=C/c1ccccc1)c1cc(C2CC2)n[nH]1 [D10.076] | 55 µM |
| O=C1/C(=N\NC(=S)Nc2ccccc2F)c2cc(S(=O)(=O)N3CCOCC3)ccc2N1Cc1ccc(Cl)cc1 [D2.004] | 33.4 µM |
| CCCCOC(=O)c1cc(-c2ccc(/C=C3/C(=O)N(CC(C)O)C(=O)C(C#N)=C3C)o2)ccc1Cl (stereo not drawn) [D4.059] | 49 µM |
| CCCc1cccc(/C=N/NC(=O)c2cc(-c3ccc(F)cc3)n[nH]2)c1O [D6.079] | 55.3 µM |
| Cn1c(=O)n(Cc2ccccc2)c(=O)c2c1nc(N1CCNCC1)n2Cc1ccccc1 [D3.064] | 48.3 µM |
| O=C(Cn1c2ccccc2c(=O)c2ccccc21)NN=Cc1cc(Br)c(O)c(Br)c1 [D10.018] | 12.4 µM |

| SMILES | IC50 |
| --- | --- |
| Cc1cc([N+](=O)[O-])c(C)cc1-c1ccc(/C=C/c2cc(C(F)(F)F)nc(=O)[nH]2)o1 [D6.034] | 20.6 µM |
| CN(C)c1ccc(/C=C(\NC(=O)c2ccccc2)C(=O)N/N=C/c2ccccc2[N+](=O)[O-])cc1 [D10.061] | 39.2 µM |
| O=C1C(N2CCOCC2)=C(Cl)/C(=N/S(=O)(=O)c2ccc(Cl)cc2)C(Cl)(Cl)C1(Cl)Cl [D4.075] | 66.6 µM |
| CCCC(=O)Oc1ccc(N(C(=O)CCC)S(=O)(=O)c2cccs2)cc1 [D9.004] | 31.3 µM |
| CCOC(=O)c1ccc(-c2ccc(/C=C3\C(=O)N(CCO)C(=O)C(C#N)=C3C)o2)cc1 [D6.087] | 65.9 µM |
| Cc1ccc(C(=O)N/C(=C/c2ccco2)C(=O)N(C)C)cc1 [D6.091] | 47.7 µM |
| CCCC(=O)Cc1ccc(N(C(=O)CCC)S(=O)(=O)c2cccs2)cc1 [D6.048] | 31.3 µM |
| Cc1cccc(C)c1OCC(=O)N/N=C/c1cc(Br)cc(Br)c1OC(=O)c1ccccc1I [D10.084] | 57 µM |
| O=C(NCc1ccco1)C(=O)Nc1ccc(Br)cc1 [D6.021] | 16.1 µM |
| Cn1cnnc1SCC(=O)OCN1C(=O)c2ccccc2C1=O [D3.083] | 62.4 µM |
| Cc1ccc(C(=O)N/C(=C/c2ccco2)C(=O)N(C)C)cc1 [D12.038] | 47.7 µM |
| CCc1c(C)[nH]c2c1/C(=N/OC(=O)C(C)C)CCC2 [D11.010] | 43.8 µM |
| COc1ccc(OCC(=O)N/N=C/c2c(Br)cc(Br)c(O)c2Br)cc1 [D10.109] | 113 µM |
| CC(C)(C)S(=O)(=O)c1ccc2nc3c(n2c1)CCCC3 [D3.003] | 15.6 µM |
| Cc1ccc(/C=N/NC(=O)c2cccc(I)c2)o1 [D10.085] | 57.7 µM |
| CCOc1cccc(/C=N/NC(=O)c2cc(-c3ccc(F)cc3)n[nH]2)c1O [D10.078] | 55.3 µM |
| CCC(=O)Oc1ccc2c(c1)OC1(OC(C)=O)OC(C)CC1=C2C (stereo not drawn) [D3.047] | 37.4 µM |
| COc1ccc(-c2ccc(C3Nc4ccc5ccccc5c4C4=C3C(=O)CC(C)(C)C4)o2)cc1Cl (stereo not drawn) [D6.098] | 87.9 µM |
| COc1cc2c(cc1OC)C13CCN4CC5=C(C6=C7CN8CCC9%10c%11cc(OC)c(OC)cc%11N%11C(=O)CC(O6)C(C7CC89)C%11%10)OC6CC(=O)N2C1C6C5CC43 (stereo not drawn) [D3.029] | 22.9 µM |
| COc1ccc(NS(=O)(=O)c2ccc(/N=C/c3cc(Br)cc(Br)c3O)cc2)nn1 [D9.010] | 88.8 µM |
| CCOc1ccc(/C=N/NC(=O)c2cc(-c3c(OC)ccc4ccccc34)n[nH]2)cc1 [D6.081] | 56.3 µM |
| O=C(Cn1c2ccccc2c(=O)c2ccccc21)N/N=C/c1cc(I)c(O)c([N+](=O)[O-])c1 [D10.073] | 52.3 µM |
| O=C1C(Cc2c[nH]c3ccccc23)NC(=S)N1c1ccccc1 (stereo not drawn) [D3.051] | 40.2 µM |
| NCc1ccccc1-n1cccc1 [D4.085] | 92.5 µM |
| CC(C)(C)CC(C)(C)c1ccc(OCC(=O)N/N=C/c2ccc(OC(=O)c3ccco3)c([N+](=O)[O-])c2)cc1 [D10.074] | 52.9 µM |

| SMILES | IC50 |
| --- | --- |
| Cn1c(=O)c2c(nc(NCCCCO)n2Cc2ccccc2Cl)n(C)c1=O [D12.002] | 16.2 µM |
| COc1ccc(OCC(=O)N/N=C/c2c(Br)cc(Br)c(O)c2Br)c(Br)c1 [D10.105] | 99.4 µM |
| COc1cc(Br)cc(Br)c1OCC(=O)N/N=C/c1ccc(O)c([N+](=O)[O-])c1 [D10.050] | 32.1 µM |
| Cc1ccc(/C=N/NC(=O)c2cccc(I)c2)o1 [D6.084] | 57.4 µM |
| CCSc1nnc2n(-c3ccc(OC)cc3)c(=O)c3c4c(sc3n12)CCCC4 [D6.031] | 20.2 µM |
| N#CC1=C(N)C(C#N)(C#N)C(c2ccccc2)C2CNCC=C12 (stereo not drawn) [D3.056] | 42.7 µM |
| O=C1CCCC(=O)N1c1ccc(N2CCc3ccccc3C2)c([N+](=O)[O-])c1 [D3.104] | 28.8 µM |
| CCOC(=O)c1cc(-c2ccc(/C=C3/C(=O)NC(=O)C(C#N)=C3C)o2)ccc1Cl [D6.082] | 56.7 µM |
| O=C(CCCCC(=O)N/N=C/c1ccccc1[N+](=O)[O-])N/N=C/c1ccccc1[N+](=O)[O-] [D10.020] | 12.8 µM |
| CCOc1cc(/C=N\NC(=O)c2cnccn2)ccc1O [D10.027] | 16.7 µM |
| O=C1CSCC(=O)N1c1ccc(F)cc1 [D4.086] | 94.5 µM |
| C/C(=N\NC(=O)c1cc(C)n[nH]1)c1ccc(-c2ccccc2)cc1 [D10.047] | 29.8 µM |
| O=C(N/N=C/c1c(O)ccc2ccccc12)c1cc(-c2ccc(-c3ccccc3)cc2)n[nH]1 [D10.056] | 33.5 µM |
| COc1cc2c(cc1OC)CC(C)(C)N=C2 [D3.026] | 20.2 µM |
| COc1cc(C(=O)Oc2c(Br)cc(Br)cc2/C=N/NC(=O)COc2ccc(C)cc2)cc(OC)c1OC [D10.082] | 55.9 µM |
| COc1ccc(/C=N/NC(=O)c2cc(O)c(O)c(O)c2)cc1COc1cc(C)c(Cl)c(C)c1 [D10.016] | 12.3 µM |
| CC1=C(C#N)C(=O)N(CC(C)O)C(=O)/C1=C/c1ccc(-c2ccc(Br)cc2)o1 (stereo not drawn) [D6.089] | 73.8 µM |
| Cc1[nH]c2ccccc2c1C(c1cc(Cl)ccc1O)N1CCOCC1 (stereo not drawn) [D5.007] | 12.1 µM |
| CCOC(=O)N1CCN(c2ccc(N3C(=O)CCCC3=O)cc2[N+](=O)[O-])CC1 [D4.078] | 70.4 µM |
| COc1ccc(Br)cc1/C=N/NC(=O)COc1ccc(C)cc1[N+](=O)[O-] [D10.068] | 45.6 µM |
| O=[N+]([O-])c1ccc(C2OCN3COCC23)cc1 (stereo not drawn) [D3.095] | 42.4 µM |
| Cc1csc(/C(=N\OC(=O)c2ccc(Br)o2)C(N)=O)n1 [D11.003] | 14 µM |
| CCC(O)(CC)C(=O)NNc1ccc(C)cc1 [D14.005] | 26.7 µM |
| Cc1ccc2nc(-c3ccc(N4C(=O)CC(N5CCC(C)CC5)C4=O)cc3)sc2c1 (stereo not drawn) [D3.094] | 116 µM |
| CCc1c(C)[nH]c2c1/C(=N\OC(=O)C(C)C)CCC2 [D6.062] | 43.8 µM |
